The values below come from publication PMC8297402, “Trifluoromethyl-substituted 3,5-bis(arylidene)-4-piperidones as potential anti-hepatoma and anti-inflammation agents by inhibiting NF-кB activation” (Journal of Enzyme Inhibition and Medicinal Chemistry, 2021).

Series [1] relates to A2780. Put plainly: Modified MTT cytotoxicity assay, A2780. The following applies: for IC50: Homo sapiens, A2780, read-out: Cytotoxicity IC50 A2780, MTT, ovarian cancer cell line; for SI (selectivity index) A2780: quotient of IC50 for normal (HHL-5) and malignant (A2780) cells.
Procedure: (§3) To further verify the anti-tumour activity, one human non-small cell lung cancer cell line (A549), one human ovarian cancer cell line (A2780), and one human normal heptical cell line (HHL-5) were screened by BAPs (4–30) using a modified MTT assay (Supporting Information). DOX and curcumin were selected as positive controls.
(§4) The optical density (OD) value of each well was measured on a
(§5) multi-well plate reader (TECAN, Mӓnnedorf, Switzerland ) at 570 nm.
(§6) Every IC 50 value was the average of three replicates.
(§7) Doxorubicin (DOX) and Curcumin were used as positive controls.
Series [2] relates to TNF-α. The series can be described thus: ELISA of TNF-α release in LPS-stimulated RAW264.7 cells. It is filed as cell-based, mouse. The following applies: Mus musculus, RAW264.7, BAPs (5 μM) + LPS (1 μg/mL), RAW264.7, ELISA; read-out: Inhibition rate TNF-α. Put shortly: (§1)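 RAW264.7 cells pretreated 2 h with compound at 5.0 μM (PDTC 30 μM as reference), then stimulated with LPS 1.0 μg/mL for a further 22 h. Secreted TNF-α and IL-6 in the culture media quantified by ELISA.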

The subject of series [3] is RAW264.7 cell. Put plainly: MTT toxicity pre-experiment on RAW264.7 macrophagocyte. It is filed as cell-based, mouse. The following applies: Mus musculus, RAW264.7, BAPs 5 μM, read-out: Survival rate RAW264.7 cell. Put shortly: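 Cytotoxicity toward RAW264.7 macrophages determined by MTT assay with compounds at 5.0 μM, expressed as cell survival rate.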
The test system of series [4] is HepG2. Put plainly: Modified MTT cytotoxicity assay, HepG2. It is filed as cell-based, Human. The following applies: for IC50: Homo sapiens, HepG2, 24 h, MTT, 24 h incubation, three replicates, read-out: Cytotoxicity IC50 HepG2; for SI (selectivity index) HepG2: quotient of IC50 for normal (LO2) and malignant (HepG2) cells. Put shortly:
(§2)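 HepG2 grown in DMEM, SMMC-7721 and LO2 in RPMI 1640, each with 10% FBS; ~8 × 10^3 cells/well. Compounds at 0.3125-10 μg/mL for 24 h at 37 °C, then MTT for 4 h. IC50 as mean of three replicates.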

The nature of series [5]: Modified MTT cytotoxicity assay, normal heptical cell line LO2. It is filed as cell-based, human. The note with it: human, LO2 cells (normal hepatic cell line), 24 h incubation. Put shortly: as §2
Series [6] relates to IL-6. The series can be described thus: ELISA of IL-6 release in LPS-stimulated RAW264.7 cells. The note with it: Mus musculus, RAW264.7, BAPs (5 μM) + LPS (1 μg/mL), RAW264.7, ELISA; read-out: Inhibition rate IL-6. In kind it is cell-based, mouse. The essentials: as §1
The test system of series [7] is SMMC-7721. The series can be described thus: Modified MTT cytotoxicity assay, SMMC-7721. It is filed as cell-based, Human. The note with it: for IC50: Homo sapiens, SMMC-7721, 24 h, MTT, 24 h incubation, three replicates; for SI (selectivity index) SMMC-7721: quotient of IC50 for normal (LO2) and malignant (SMMC-7721) cells. The essentials:
as §2

Series [8] concerns A549. The series can be described thus: Modified MTT cytotoxicity assay, A549. The note with it: for IC50: Homo sapiens, A549, read-out: Cytotoxicity IC50 A549, MTT, non-small cell lung cancer cell line; for SI (selectivity index) A549: quotient of IC50 for normal (HHL-5) and malignant (A549) cells.
Procedure: as §3, §4, §5, §6, §7
A short description of series [9]: Modified MTT cytotoxicity assay, normal heptical cell line HHL-5. The note with it: human, HHL-5 cells (normal hepatic cell line).
A short description of series [10]: in vitro. The note with it: human.

The molecule `O=C1/C(=C/c2cccc(C(F)(F)F)c2)CN(S(=O)(=O)c2ccccc2)C/C1=C\c1cccc(C(F)(F)F)c1` [BAP 13] returned a melting point of 151 to 153 °C. Also, in series [1], the concentration for half-maximal inhibition (IC50) came out at 160 ± 10 nM and the “SI (selectivity index) A2780” value was found to be 18.1. Also, the inhibition at 5 µM in [2] amounted to 56.3 ± 2.1%. The viability at 5 µM in series [3] came to 82.5 ± 1.3%. In [4], the 50% inhibitory concentration (IC50) turned out to be 3500 ± 100 nM and the “SI (selectivity index) HepG2” value is given as 3.1. Further, the half-maximal inhibitory concentration (IC50) at 24 h in series [5] was determined as 10100 ± 400 nM. The inhibition at 5 µM in series [6] stood at 48.9 ± 2.9%. In series [7], the IC50 was 5700 ± 100 nM and the “SI (selectivity index) SMMC-7721” value is given as 1.8. Also, in series [8], the half-inhibitory concentration (IC50) was 250 ± 10 nM and the “SI (selectivity index) A549” value stood at 11.6. In [9], this molecule showed an IC50 of 2900 ± 200 nM.

In turn, `O=C1/C(=C/c2cccc(C(F)(F)F)c2)CN(S(=O)(=O)c2ccc([N+](=O)[O-])cc2)C/C1=C\c1cccc(C(F)(F)F)c1` [BAP 15] returned a melting point of 196 to 198 °C. In series [1], the IC50 was 140 ± 20 nM and the “SI (selectivity index) A2780” value is on record as 37.1. Moreover, in series [2], the inhibition at 5 µM amounted to 62.1 ± 0.7%. In addition, the viability at 5 µM in series [3] stood at 81.9 ± 1.2%. In [4], the IC50 was 2700 ± 100 nM and the “SI (selectivity index) HepG2” value amounted to 4.7. Besides, the 50% inhibitory concentration (IC50) at 24 h in series [5] was 12600 ± 100 nM. Moreover, in series [6], the inhibition at 5 µM came out at 60.8 ± 4.2%. In series [7], half-maximal inhibition (IC50) was put at 5000 ± 100 nM and the “SI (selectivity index) SMMC-7721” value is recorded as 2.5. Besides, in series [8], the IC50 was 130 ± 20 nM and the “SI (selectivity index) A549” value was 40.0. The same molecule displayed an IC50 in [9] of 5200 ± 300 nM.

`O=C1/C(=C/c2cccc(C(F)(F)F)c2)CN(S(=O)(=O)c2ccc(Br)cc2)C/C1=C\c1cccc(C(F)(F)F)c1` [BAP 19] displayed a melting point of 135 to 137 °C. For the same molecule, in series [1], the 50% inhibitory concentration (IC50) was 210 ± 30 nM and the “SI (selectivity index) A2780” value came out at 64.8. The inhibition at 5 µM in series [2] amounted to 49.2 ± 3.7%. For the same molecule, the viability at 5 µM in [3] turned out to be 81.9 ± 0.6%. Further, in [4], the 50% inhibitory concentration (IC50) turned out to be 6500 ± 200 nM and the “SI (selectivity index) HepG2” value stood at 1.7. The 50% inhibitory concentration (IC50) at 24 h in series [5] is 11000 ± 200 nM. Also, in [6], the inhibition at 5 µM is 56.3 ± 1.3%. In series [7], the midpoint of inhibition, the IC50, lay at 7600 ± 400 nM and the “SI (selectivity index) SMMC-7721” value was 1.4. Also, in [8], the concentration for half-maximal inhibition (IC50) is 120 ± 10 nM and the “SI (selectivity index) A549” value is on record as 113.3. The half-maximal inhibitory concentration (IC50) in [9] came to 13600 ± 500 nM.

Take `O=C1/C(=C/c2ccc(C(F)(F)F)cc2)CN(S(=O)(=O)c2ccc(Cl)cc2)C/C1=C\c1ccc(C(F)(F)F)cc1` [BAP 27]: the melting point is 220 to 222 °C. Further, in series [1], the IC50 was 197 ± 50 nM and the “SI (selectivity index) A2780” value turned out to be 46.2. Also, the inhibition at 5 µM in [2] came to 69.9 ± 2.7%. The viability at 5 µM in series [3] was 86.4 ± 4.8%. In [4], the concentration for half-maximal inhibition (IC50) stood at 1400 ± 200 nM and the “SI (selectivity index) HepG2” value turned out to be 11.3. Also, 15800 ± 400 nM corresponded to half-maximal inhibition in series [5] (IC50 at 24 h). Also, the inhibition at 5 µM in series [6] stood at 67.3 ± 2.2%. In series [7], half-maximal inhibition (IC50) required 1800 ± 200 nM and the “SI (selectivity index) SMMC-7721” value is 8.8. Further, in series [8], the half-inhibitory concentration (IC50) was determined as 140 ± 40 nM and the “SI (selectivity index) A549” value is reported as 65.0. Inhibition in [9] was half-maximal at 9100 ± 200 nM (IC50).

Regarding `COc1cccc2c1C(=O)c1c(O)c3c(c(O)c1C2=O)C[C@@](O)(C(=O)CO)C[C@@H]3O[C@H]1C[C@H](N)[C@H](O)[C@H](C)O1` [DOX, Doxorubicin, reference compound], in series [1], the IC50 turned out to be 190 ± 10 nM and the “SI (selectivity index) A2780” value is given as 64.2. Further, in series [4], the IC50 was ~1300 nM and the “SI (selectivity index) HepG2” value was found to be 6.8. Besides, in series [10], it took 12200 ± 400 nM to reach half-maximal inhibition (IC50). In [5], this molecule came in with a concentration for half-maximal inhibition (IC50) at 24 h of 8900 ± 500 nM. Also, in series [7], the IC50 is ~1700 nM and the “SI (selectivity index) SMMC-7721” value is given as 5.2. Besides, the “SI (selectivity), bound stated for A549 and A2780 together” value in series [8] (A549 and A2780 vs HHL-5) is > 40. In series [8], the IC50 was determined as 290 ± 70 nM and the “SI (selectivity index) A549” value was 42.1.
